Results published in patent EP0349354A1, “Peptides PF10 to PF19 from a retro virus HIV, method for the synthesis of these peptides and their use, particularly in diagnostics” (INSTITUT PASTEUR, priority 1988, dated 1990).

Columns and labels:
[1] = system: anticorps anti-protéine F; assay: Western blot test on peptide spots with sera of HIV-1 infected patients; type: binding, humain; settings: serum 1545 diluted 1/200; spot 10µl of peptide at 2 mg/ml
Experimental: Pour les besoins du test, les différents peptides PF16, PF19, PF13, PF17 utilisés sont dilués à une concentration de 2 mg/ml.
Sur une bande de papier BIORAD pour transblot, on dépose différents spots : 1µl, 2µl, 5µl, 10µl.
Après séchage on pratique un test Western Blot classique en utilisant comme anticorps des sérums de patients infectés par le virus HIV-1, positifs pour la protéine F, à des dilutions variant de 1/100 à 1/300.
Les peptides testés permettent d'aboutir aux résultats résumés dans le tableau 2 avec trois sérums différents anti-F ++ (++ signifiant une réaction plus marquée).

[2] = system: anticorps anti-nef; assay: ELISA for detection of anti-nef antibodies on coated peptides or nef; type: binding, humain

With “XCYKLVPVEPDKVEEANKGENTSLLHPVSLHGMDDPEREVLEWRFDSRL AFHHVARELHPEYFKNCZ [PF17, protéine F HIV-1, séquence 141-205]” the “réaction avec sérum 1545 1/200, 10µl” value [1] was “tr”, the “nombre de sérums anti-nef positifs ayant réagi” value ([2]; ELISA, out of 31 anti-nef positive sera) was 26 and the “intensité de l'immunoréactivité (OD), Serum 1” value ([2]; Serum 1, anti-nef positive, 500 ng coated per well) was “+++ (pour OD = 0,8 à 2,0)”. The “intensité de l'immunoréactivité (OD), Serum 2” value ([2]; Serum 2, anti-nef positive, 500 ng coated per well) was “+++ (pour OD = 0,8 à 2,0)”, the “intensité de l'immunoréactivité (OD), Serum 3” value ([2]; Serum 3, anti-nef positive, 500 ng coated per well) was “+ (pour OD = 0,2 à 0,4)” and the “intensité de l'immunoréactivité (OD), Serum 4” value ([2]; Serum 4, anti-nef positive, 500 ng coated per well) was “+++ (pour OD = 0,8 à 2,0)”. For the same sequence, the “intensité de l'immunoréactivité (OD), Serum 5” value ([2]; Serum 5, anti-nef positive, 500 ng coated per well) was “+++ (pour OD = 0,8 à 2,0)”, the “intensité de l'immunoréactivité (OD), Serum 6” value ([2]; Serum 6, anti-nef positive, 500 ng coated per well) was “+++ (pour OD = 0,8 à 2,0)” and the “intensité de l'immunoréactivité (OD), Serum 7” value ([2]; Serum 7, anti-nef positive, 500 ng coated per well) was “- (pour une densité optique (OD) inférieure à 0,2)”. The “intensité de l'immunoréactivité (OD), Serum 8” value ([2]; Serum 8, anti-nef positive, 500 ng coated per well) was “- (pour une densité optique (OD) inférieure à 0,2)”, the “intensité de l'immunoréactivité (OD), Serum 9” value ([2]; Serum 9, anti-nef positive, 500 ng coated per well) was “- (pour une densité optique (OD) inférieure à 0,2)” and the “intensité de l'immunoréactivité (OD), Serum 10” value ([2]; Serum 10, anti-nef positive, 500 ng coated per well) was “++ (pour OD = 0,4 à 0,8)”. The “intensité de l'immunoréactivité (OD), Serum 11” value ([2]; Serum 11, anti-nef positive, 500 ng coated per well) was “+ (pour OD = 0,2 à 0,4)”, the “intensité de l'immunoréactivité (OD), Serum 12” value ([2]; Serum 12, anti-nef positive, 500 ng coated per well) was “- (pour une densité optique (OD) inférieure à 0,2)” and the “intensité de l'immunoréactivité (OD), Serum 13” value ([2]; Serum 13, anti-nef positive, 500 ng coated per well) was “++ (pour OD = 0,4 à 0,8)”. The “intensité de l'immunoréactivité (OD), Serum 14” value ([2]; Serum 14, anti-nef positive, 500 ng coated per well) was “- (pour une densité optique (OD) inférieure à 0,2)”, the “intensité de l'immunoréactivité (OD), Serum 15” value ([2]; Serum 15, anti-nef positive, 500 ng coated per well) was “+++ (pour OD = 0,8 à 2,0)” and the “intensité de l'immunoréactivité (OD), Serum 16” value ([2]; Serum 16, anti-nef positive, 500 ng coated per well) was “++ (pour OD = 0,4 à 0,8)”. For the same sequence, the “intensité de l'immunoréactivité (OD), Serum 17” value ([2]; Serum 17, anti-nef positive, 500 ng coated per well) was “++ (pour OD = 0,4 à 0,8)”, the “intensité de l'immunoréactivité (OD), Serum 18” value ([2]; Serum 18, anti-nef positive, 500 ng coated per well) was “+++ (pour OD = 0,8 à 2,0)” and the “intensité de l'immunoréactivité (OD), Serum 19” value ([2]; Serum 19, anti-nef positive, 500 ng coated per well) was “+++ (pour OD = 0,8 à 2,0)”. The “intensité de l'immunoréactivité (OD), Serum 20” value ([2]; Serum 20, anti-nef positive, 500 ng coated per well) was “++ (pour OD = 0,4 à 0,8)”, the “intensité de l'immunoréactivité (OD), Serum 21” value ([2]; Serum 21, anti-nef positive, 500 ng coated per well) was “+++ (pour OD = 0,8 à 2,0)” and the “intensité de l'immunoréactivité (OD), Serum 22” value ([2]; Serum 22, anti-nef positive, 500 ng coated per well) was “+++ (pour OD = 0,8 à 2,0)”. For the same sequence, the “intensité de l'immunoréactivité (OD), Serum 23” value ([2]; Serum 23, anti-nef positive, 500 ng coated per well) was “++ (pour OD = 0,4 à 0,8)”, the “intensité de l'immunoréactivité (OD), Serum 24” value ([2]; Serum 24, anti-nef positive, 500 ng coated per well) was “+++ (pour OD = 0,8 à 2,0)” and the “intensité de l'immunoréactivité (OD), Serum 25” value ([2]; Serum 25, anti-nef positive, 500 ng coated per well) was “+++ (pour OD = 0,8 à 2,0)”. The “intensité de l'immunoréactivité (OD), Serum 26” value ([2]; Serum 26, anti-nef positive, 500 ng coated per well) was “++ (pour OD = 0,4 à 0,8)”, the “intensité de l'immunoréactivité (OD), Serum 27” value ([2]; Serum 27, anti-nef positive, 500 ng coated per well) was “+ (pour OD = 0,2 à 0,4)” and the “intensité de l'immunoréactivité (OD), Serum 28” value ([2]; Serum 28, anti-nef positive, 500 ng coated per well) was “++ (pour OD = 0,4 à 0,8)”. The “intensité de l'immunoréactivité (OD), Serum 29” value ([2]; Serum 29, anti-nef positive, 500 ng coated per well) was “++ (pour OD = 0,4 à 0,8)”, the “intensité de l'immunoréactivité (OD), Serum 30” value ([2]; Serum 30, anti-nef positive, 500 ng coated per well) was “+++ (pour OD = 0,8 à 2,0)” and the “intensité de l'immunoréactivité (OD), Serum 31” value ([2]; Serum 31, anti-nef positive, 500 ng coated per well) was “++ (pour OD = 0,4 à 0,8)”. For the same sequence, the “intensité de l'immunoréactivité (OD), Serum 32” value ([2]; Serum 32, anti-nef negative control serum, 500 ng coated per well) was “- (pour une densité optique (OD) inférieure à 0,2)” and the “intensité de l'immunoréactivité (OD), Serum 33” value ([2]; Serum 33, anti-nef negative control serum, 500 ng coated per well) was “- (pour une densité optique (OD) inférieure à 0,2)”.
